For one assay, the target named is T1, Siglec-8 R125A CHO cells (Homo sapiens, UniProt Q9NYZ4, R125A).
T1 construct: expressed in transfected cells
In words: Cell assay (liposome/EV binding, flow cytometry). It counts as cell-based. The note with it: Sig-8 R125A; 3 mol% ganglioside liposomes; replicates. The essentials: (§1)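 CHO cells expressing the indicated Siglec (wild-type or R-to-A mutant) were incubated 30 min at 37 °C with 50 µM fluorescent DSPC/cholesterol/PEG-DSPE liposomes (~130 nm, Siglec ligand-bearing) or 50 µg/mL EVs in DMEM F12 5% FBS. After washing and anti-Siglec staining on ice, binding was measured by flow cytometry on Siglec-positive gated cells.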
Background: Flow cytometry measures light scatter and fluorescence of single cells or particles in a stream.

The target of the next assay is T2, Siglec-8 WT CHO cells (Homo sapiens, UniProt Q9NYZ4).
T2 construct: expressed in transfected cells
T2 sequence (Q9NYZ4 17-499): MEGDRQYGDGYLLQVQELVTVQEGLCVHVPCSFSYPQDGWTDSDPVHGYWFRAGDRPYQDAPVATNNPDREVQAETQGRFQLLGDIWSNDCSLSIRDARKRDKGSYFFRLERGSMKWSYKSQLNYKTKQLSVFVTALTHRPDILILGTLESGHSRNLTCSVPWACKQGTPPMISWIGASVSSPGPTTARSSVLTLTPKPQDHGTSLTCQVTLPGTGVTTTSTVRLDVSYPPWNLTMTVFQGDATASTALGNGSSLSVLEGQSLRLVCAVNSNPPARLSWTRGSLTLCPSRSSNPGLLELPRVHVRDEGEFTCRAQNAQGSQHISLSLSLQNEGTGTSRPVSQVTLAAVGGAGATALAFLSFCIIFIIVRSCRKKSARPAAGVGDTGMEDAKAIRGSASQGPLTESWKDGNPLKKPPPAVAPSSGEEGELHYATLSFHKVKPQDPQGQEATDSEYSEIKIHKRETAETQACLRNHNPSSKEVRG
Put plainly: Cell assay (liposome/EV binding, flow cytometry). Format: cell-based. To be noted: Sig-8 WT; 3 mol% ganglioside liposomes; replicates. The essentials: as §1

Another assay addresses T3, WT Siglec-1 CHO cells (Homo sapiens, UniProt Q9BZZ2).
T3 construct: expressed in transfected cells
Put plainly: Cell assay (liposome/EV binding, flow cytometry). Format: cell-based. Further details: GM1 liposome binding to Siglec-1 CHO cells, flow cytometry (Fig. 1b) / Binding of liposomes with increasing ganglioside content against Siglec-1 CHO cells (Fig. 1c) / Liposome binding to Siglec-1-expressing CHO cells in the cell assay (Fig. 1f): unit not given here. The note with it: for Binding of liposomes with increasing ganglioside content against Siglec-1 CHO cells (Fig. 1c) / log10(MFI AF647) of GLL relative to log10(MFI AF647) of the same GLL against UT CHO cells (Fig. 2a): replicates; for log10(MFI AF647) of GLL relative to log10(MFI AF647) of the same GLL against UT CHO cells (Fig. 2a): Sig-1 WT, 3 mol% ganglioside liposomes. In a few lines: as §1

A further assay concerns the target Siglec-1-Fc WT (Homo sapiens, UniProt Q9BZZ2). Put plainly: Ganglioside ELISA. Format: binding. To be noted: Figure 2c, replicates. The method, then: (§2) Siglec-Fc constructs designed by Rodrigues et al.[30] were used in this work. Siglec-Fc constructs were expressed using WT CHO cells in cell culture media as described above with 1% HEPES. Cells incubated as described above for one-week post confluency. The supernatant was harvested and stored at 4 °C.
(§3) The purification was heavily inspired by Rodrigues et al.[30]. The purification of the Siglec-Fcs from supernatant began with Ni^2+ affinity chromatography using an AKTA FPLC equipped with a HisTrap Excel column (GE). The column was equilibrated with fifteen column volumes (CVs) of equilibrium buffer (500 mM NaCl, 20 mM NaPO4H2, pH 7.4). The Siglec-Fc containing supernatant was then loaded in its entirety onto the column. The column was then washed with fifteen CVs of wash buffer (500 mM NaCl, 30 mM imidazole, 20 mM NaPO4H2, pH 7.4). The Siglec-Fc was then eluted in 20 in 1 mL fractions with twenty CVs of elution buffer (500 mM NaCl, 500 mM imidazole, 20 mM NaPO4H2, pH 7.4). Fractions containing Siglec-Fc were compiled and then prepared for the next stage of purification by diluting the fractions 1:4 with buffer W (100 mM Tris–HCl, 150 mM NaCl, 1 mM EDTA, pH 8.0). A Strep-Tactin column (IBA life sciences) was washed with fifteen CVs of buffer W. The Siglec-Fc-buffer W solution was then loaded in its entirety onto the column. The bound Siglec-Fc was then washed with fifteen CVs of buffer W. Siglec-Fc was eluted from the column with 15 column volumes of buffer E (100 mM Tris–HCl, 150 mM NaCl, 1 mM EDTA, 10 mM d-Desthiobiotin, pH 8.0). Fractions containing Siglec-Fc were pooled and dialyzed against PBS to remove any d-Desthiobiotin. After dialysis, Siglec-Fcs were concentrated using an ultra-centrifugal device (30 kDa MWCO) and aliquoted into 5 µg aliquots, and frozen. The Siglec-Fcs were then lyophilized overnight, and the lyophilized Siglec-Fcs were stored at −20 °C.
(§4) Our ELISA approach was carried out similarly to previous work by Rapoport[12] and Yamakawa[44]. Ganglioside ethanol solutions (10 µM) were prepared and then transferred in 50 µL increments to a 96-well microplate. The ethanol was removed by drying the plates overnight at room temperature. The plates were then washed with PBS, dried, and then blocked with 5% (m/V) BSA PBS for 1 h. The plates were then washed with PBS and then 2 µg/mL Siglec-Fc precomplexed to Strep-Tactin (2 Siglec-Fc:1 Strep-Tactin monomer) horse radish peroxidase was added to the microplate. The complex was incubated with the plate at room temperature for 2 h. The unbound complexes were then removed by washing in PBS and the plate was developed with Sera care TMB solution. The amount of binding was then quantified by using the background (microplate well with no ligand) subtracted absorbance at 450 nm using a Molecular Devices SpectraMAX ® iD5.
(In general: ELISA stands for enzyme-linked immunosorbent assay.)

The next assay deals with T4, R122A Siglec-6-Fc (Homo sapiens, UniProt O43699, R122A).
T4 construct: the Siglecs as Fc chimeras; made in house; host or cells: WT CHO cells
T4 sequence (O43699 27-347 R122A limits assumed): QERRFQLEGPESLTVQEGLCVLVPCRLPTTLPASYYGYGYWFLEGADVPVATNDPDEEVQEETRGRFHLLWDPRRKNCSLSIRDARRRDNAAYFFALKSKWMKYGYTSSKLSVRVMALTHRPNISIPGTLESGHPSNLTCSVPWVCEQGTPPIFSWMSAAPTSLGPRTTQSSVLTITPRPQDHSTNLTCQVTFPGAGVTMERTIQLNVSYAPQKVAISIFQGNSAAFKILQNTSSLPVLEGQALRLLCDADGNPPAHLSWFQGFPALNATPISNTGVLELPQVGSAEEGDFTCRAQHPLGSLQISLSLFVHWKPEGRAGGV
Put plainly: Ganglioside ELISA. To be noted: Figure 2c, replicates. It counts as binding. The procedure:
as §2, §3, §4

The target of a further assay is T5, Siglec-6-Fc WT (Homo sapiens, UniProt O43699).
T5 construct: the Siglecs as Fc chimeras; made in house; host or cells: WT CHO cells
T5 sequence (O43699 27-347 limits assumed): as the sequence (O43699 27-347 R122A limits assumed) above, with A96R counted along it
In words: Ganglioside ELISA. To be noted: for ganglioside ELISA signal, Siglec-6 WT: Figure 2c, replicates; for ELISA recognition of adsorbed ganglioside by Siglec-6 (in words): ganglioside adsorbed to microplate, outside a bilayer. It counts as binding. The procedure: as §2, §3, §4

A further assay has as its target T6, Siglec-7-Fc WT (Homo sapiens, UniProt Q9Y286).
T6 construct: the Siglecs as Fc chimeras; made in house; host or cells: WT CHO cells
Put plainly: Ganglioside ELISA. It counts as binding. To be noted: Figure 2c, replicates. The procedure: as §2, §3, §4

In the next assay the target is T7, Siglec-7-Fc R124A (Homo sapiens, UniProt Q9Y286, R124A).
T7 construct: the Siglecs as Fc chimeras; made in house; host or cells: WT CHO cells
T7 sequence (Q9Y286 19-353 R124A limits assumed): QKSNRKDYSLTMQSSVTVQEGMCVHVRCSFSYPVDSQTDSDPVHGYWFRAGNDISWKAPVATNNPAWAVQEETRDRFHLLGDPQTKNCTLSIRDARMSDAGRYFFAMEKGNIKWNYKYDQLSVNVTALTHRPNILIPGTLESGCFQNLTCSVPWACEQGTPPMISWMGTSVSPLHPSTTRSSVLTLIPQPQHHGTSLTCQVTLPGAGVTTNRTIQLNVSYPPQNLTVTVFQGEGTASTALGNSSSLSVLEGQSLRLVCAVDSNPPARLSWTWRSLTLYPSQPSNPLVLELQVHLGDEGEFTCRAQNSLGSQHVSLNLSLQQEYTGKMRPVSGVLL
Put plainly: Ganglioside ELISA. Format: binding. To be noted: Figure 2c, replicates. The procedure: as §2, §3, §4

“And” between values parts separate entries of the source, which are not always exact repeats. Equal values may be shown once.

T6 sequence (Q9Y286 19-353 limits assumed): as the sequence (Q9Y286 19-353 R124A limits assumed) above, with A106R counted along it
Chain of Siglec-1-Fc WT (Q9BZZ2 20-136 limits assumed): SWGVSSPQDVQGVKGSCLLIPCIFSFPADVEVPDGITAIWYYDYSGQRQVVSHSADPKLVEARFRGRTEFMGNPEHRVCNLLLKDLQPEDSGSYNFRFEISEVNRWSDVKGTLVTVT
T3 sequence (Q9BZZ2 20-1709): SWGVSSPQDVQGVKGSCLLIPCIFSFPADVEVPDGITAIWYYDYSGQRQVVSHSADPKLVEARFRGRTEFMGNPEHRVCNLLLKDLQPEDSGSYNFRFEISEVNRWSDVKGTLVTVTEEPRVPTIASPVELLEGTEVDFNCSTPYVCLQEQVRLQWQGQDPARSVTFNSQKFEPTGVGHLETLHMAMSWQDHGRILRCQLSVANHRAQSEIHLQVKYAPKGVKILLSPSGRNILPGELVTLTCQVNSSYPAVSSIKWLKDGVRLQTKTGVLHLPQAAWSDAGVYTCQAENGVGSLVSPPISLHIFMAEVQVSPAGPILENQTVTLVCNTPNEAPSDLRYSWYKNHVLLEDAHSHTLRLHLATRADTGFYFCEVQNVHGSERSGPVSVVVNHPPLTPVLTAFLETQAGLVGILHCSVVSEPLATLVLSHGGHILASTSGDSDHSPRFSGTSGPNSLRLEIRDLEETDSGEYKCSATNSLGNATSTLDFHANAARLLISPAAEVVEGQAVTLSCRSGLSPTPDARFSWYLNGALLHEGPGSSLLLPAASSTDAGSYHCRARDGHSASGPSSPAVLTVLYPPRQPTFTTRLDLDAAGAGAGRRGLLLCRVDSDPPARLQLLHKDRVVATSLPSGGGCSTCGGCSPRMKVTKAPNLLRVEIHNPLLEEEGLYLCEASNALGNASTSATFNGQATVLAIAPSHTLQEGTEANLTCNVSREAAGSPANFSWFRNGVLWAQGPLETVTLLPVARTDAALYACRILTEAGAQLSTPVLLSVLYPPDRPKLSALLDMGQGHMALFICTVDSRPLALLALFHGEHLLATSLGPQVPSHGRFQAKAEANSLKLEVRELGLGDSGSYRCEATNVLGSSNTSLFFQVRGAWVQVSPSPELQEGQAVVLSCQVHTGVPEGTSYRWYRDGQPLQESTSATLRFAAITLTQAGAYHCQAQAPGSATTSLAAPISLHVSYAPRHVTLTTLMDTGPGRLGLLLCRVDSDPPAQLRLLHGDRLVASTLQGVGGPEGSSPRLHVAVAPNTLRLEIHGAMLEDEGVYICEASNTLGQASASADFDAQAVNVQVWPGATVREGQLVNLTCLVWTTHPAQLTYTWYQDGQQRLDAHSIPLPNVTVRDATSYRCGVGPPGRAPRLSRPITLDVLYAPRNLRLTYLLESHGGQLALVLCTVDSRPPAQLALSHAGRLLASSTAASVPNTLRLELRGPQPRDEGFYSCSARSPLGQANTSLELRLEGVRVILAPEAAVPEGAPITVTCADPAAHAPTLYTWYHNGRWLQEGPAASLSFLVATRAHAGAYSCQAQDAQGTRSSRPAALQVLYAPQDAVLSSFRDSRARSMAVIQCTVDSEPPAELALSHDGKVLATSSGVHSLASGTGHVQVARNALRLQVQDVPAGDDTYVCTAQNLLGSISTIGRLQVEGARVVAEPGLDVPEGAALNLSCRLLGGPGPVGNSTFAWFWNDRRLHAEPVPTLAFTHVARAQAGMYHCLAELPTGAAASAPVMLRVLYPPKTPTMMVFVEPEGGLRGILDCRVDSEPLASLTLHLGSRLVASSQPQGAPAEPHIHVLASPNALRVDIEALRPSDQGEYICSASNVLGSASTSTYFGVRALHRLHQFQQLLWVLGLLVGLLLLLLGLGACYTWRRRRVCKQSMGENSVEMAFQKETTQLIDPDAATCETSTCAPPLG
T1 sequence (Q9NYZ4 17-499 R125A): as the sequence (Q9NYZ4 17-499) above, with R109A counted along it

With GD1a, the “log10(MFI AF647) of GLL relative to log10(MFI AF647) of the same GLL against UT CHO cells (Fig. 2a)” value was -0.1 and -0.13 (3×) at Siglec-8 R125A CHO cells; -0.17 and -0.14 and -0.12 and -0.13 on Siglec-8 WT CHO cells; 0.86 (2×) and 0.89 and 0.85 on WT Siglec-1 CHO cells. The “Binding of liposomes with increasing ganglioside content against Siglec-1 CHO cells (Fig. 1c)” value was -0.01 at WT Siglec-1 CHO cells (0.000187 Ligand/nm2); 0.01 at WT Siglec-1 CHO cells (0.00933 Ligand/nm2); 0.5 and 0.49 and 0.48 and 0.51 at WT Siglec-1 CHO cells (0.0187 Ligand/nm2); 0.26 (2×) and 0.28 and 0.3 on WT Siglec-1 CHO cells (0.0933 Ligand/nm2); 0.19 (3×) and 0.2 on WT Siglec-1 CHO cells (0.187 Ligand/nm2); 0.1 (2×) and 0.09 (2×) on WT Siglec-1 CHO cells (0.373 Ligand/nm2). The “ganglioside content threshold above which GLL binding to Siglec-1 CHO cells decreased” value at WT Siglec-1 CHO cells (ganglioside titrated in GLLs) is reported as 1–3 mol%. Moreover, the “ganglioside ELISA signal, Siglec-1 WT” value at Siglec-1-Fc WT was 0.75 and 1.01 and 0.87. Moreover, the “ganglioside ELISA signal, Siglec-6 R” value on R122A Siglec-6-Fc was 0.08 and 0.06 and 0.05. In addition, the “ganglioside ELISA signal, Siglec-6 WT” value at Siglec-6-Fc WT is -0.08 and 0.02 and 0.01 and -0.06. For the same substance, the “ELISA recognition of adsorbed ganglioside by Siglec-6 (in words)” value at Siglec-6-Fc WT is given as “did not recognize”. The “ganglioside ELISA signal, Siglec-7 WT” value on Siglec-7-Fc WT was 0.27 and 0.32 and 0.24 and 0.37. On Siglec-7-Fc R124A, the “ganglioside ELISA signal, Siglec-7 R” value was 0.05 and 0 and -0.01.
On to GT1b, for which the “log10(MFI AF647) of GLL relative to log10(MFI AF647) of the same GLL against UT CHO cells (Fig. 2a)” value on Siglec-8 R125A CHO cells was -0.22 (2×) and -0.23 and -0.24; on Siglec-8 WT CHO cells, -0.21 and -0.22 and -0.23 and -0.19; on WT Siglec-1 CHO cells, 0.29 (2×) and 0.32 and 0.23. In addition, on Siglec-1-Fc WT, the “ganglioside ELISA signal, Siglec-1 WT” value was 0.25 and 0.3 and 0.43 and 0.46. In addition, the “ganglioside ELISA signal, Siglec-6 R” value on R122A Siglec-6-Fc was 0.11 and 0.08 and 0.1 and 0.13. Besides, the “ganglioside ELISA signal, Siglec-6 WT” value at Siglec-6-Fc WT was -0.04 and -0.01 and -0.09 and -0.11. Moreover, the “ELISA recognition of adsorbed ganglioside by Siglec-6 (in words)” value on Siglec-6-Fc WT is on record as “did not recognize”. The “ganglioside ELISA signal, Siglec-7 WT” value on Siglec-7-Fc WT was 0.49 and 0.55 and 0.5. Further, at Siglec-7-Fc R124A, the “ganglioside ELISA signal, Siglec-7 R” value was -0.01 and -0.02.
